# Data taken from patent US6599748B1, “Hardness indicator composition and method of water hardness analysis” (Miura Co., Ltd., priority 1999, dated 2003).
# Read-outs that look alike come from different tables or passages of the source.
# How the values were obtained:
# [1] = Ca chelate stability constant (chelating power with calcium); type: physicochemical
# Description: […]. […] […].
# [2] = Description: Therefore, the desensitizer to be added to the metal indicator is explained. […] However, the desensitizer differs from the metal indicator in that the metal indicator forms complex ions in combination with all hardness-component metal ions, while the desensitizer forms complex ions in combination with part of the hardness-component metal ions. […] Symbol “ ” in results represents usableness as the desensitizer, and “×” represents unusableness as the desensitizer.
# Accordingly, Table 1 show the results of judgment determined by taking into account these conditions.
"Ca chelate stability constant, logK [1]","Solubility, g/100 g water [2]",Compound,"Ca chelate stability constant, logK ([1]; chelating power with calcium)"
2.59,,O=C([O-])CNCC(=O)[O-].[K+].[K+] [2K iminodiacetate],
,,"O=C([O-])CC(O)(CC(=O)[O-])C(=O)[O-].[Na+].[Na+].[Na+] [2Na citrate, sodium citrate]",<2.0
2.59,10 g/100 g water,"O=C([O-])CNCC(=O)[O-].[Na+].[Na+] [2Na iminodiacetate, sodium iminodiacetate]",
<2.0,over 40 g/100 g water,sodium polyacrylate [Na polyacrylate],

Compound,"Ca chelate stability constant, logK [1]","Solubility, g/100 g water [2]","Ca chelate stability constant, logK ([1]; chelating power with calcium)"
O=C([O-])CC(O)(CC(=O)O)C(=O)[O-].[K+].[K+] [2K citrate],<2.0,,
